Data as given in article PMC12851022, “Targeting the Spliceosomal Protein USP39 Through Allosteric Ligands and PROTAC‐Induced Degradation” (Angewandte Chemie (International Ed. in English), 2025).

Experiments:
[1] = target: USP39 / VHL (Homo sapiens, UniProt P40337+Q53GS9); assay: Co-immunoprecipitation of VHL with western blot for ubiquitin, USP39 and VHL; format: cell-based; details: in the presence of MLN4924
[2] = system: 5′ splice site usage in exon 1 of ZNF414 and CRK; assay: RT-PCR analysis of alternative splicing in ZNF414 and CRK transcripts; format: cell-based, human; details: 10 nM, 24 h
Description: (§1) Figure 4 Effective and selective degradation of USP39 in cells by USP39‐PROTACs. a) Optimization of cellular degradation assay in HeLa cells transiently overexpressing USP39‑OFP (HeLa‐USP39‐OFP). […] GAPDH was used as a loading control. g) Proteasome dependence of USP39 degradation. HeLa‐WT cells were co‐treated with MG132 (0.25 µM) or DMSO control and USP39_PROTAC_V1 for 24 h ST. h) Representative immunofluorescence images of HeLa‐USP39_OFP cells treated with DMSO (NT), USP39_PROTAC_V1 (10 nM, 24 h), or USP39_PROTAC_V1 + MLN4924 (1 µM), stained for USP39 (red) and nuclei (blue). i) Quantification of USP39 degradation by fluorescence microscopy, showing DC50 values of 13 nM without MLN4924 (orange) and 204 nM with MLN4924 (blue) (MLN4924 = 5 uM). j) VHL‐dependence of PROTAC‐induced degradation. Schematic of PROTAC recruitment to VHL via hydroxyl‐proline interactions (His115, Ser111). Western blot comparing USP39 levels in VHL WT and VHL KO HeLa cells treated with USP39_PROTAC_V1. k) Fluorescence assay in HEK293T cells co‐expressing USP39‑OFP and either VHL_WT‑EGFP or VHL_m (Δ91–121). […] Comparison of untreated (NT) and USP39_PROTAC_V1–treated (10 nM, 24 h) samples. Percent spliced/unspliced (S/U) ratios are shown, reflecting USP39‐deficiency–associated splicing defects. Data represent at least four independent biological replicates. […]

[3] = target: T1, USP39-OFP (Homo sapiens, UniProt Q53GS9); assay: Fluorescence degradation assay in HEK293T cells co-expressing USP39-OFP and VHL_m (Δ91–121); format: cell-based
T1 construct: expressed in transfected cells; host or cells: HEK293T
T1 sequence (Q53GS9 1-565): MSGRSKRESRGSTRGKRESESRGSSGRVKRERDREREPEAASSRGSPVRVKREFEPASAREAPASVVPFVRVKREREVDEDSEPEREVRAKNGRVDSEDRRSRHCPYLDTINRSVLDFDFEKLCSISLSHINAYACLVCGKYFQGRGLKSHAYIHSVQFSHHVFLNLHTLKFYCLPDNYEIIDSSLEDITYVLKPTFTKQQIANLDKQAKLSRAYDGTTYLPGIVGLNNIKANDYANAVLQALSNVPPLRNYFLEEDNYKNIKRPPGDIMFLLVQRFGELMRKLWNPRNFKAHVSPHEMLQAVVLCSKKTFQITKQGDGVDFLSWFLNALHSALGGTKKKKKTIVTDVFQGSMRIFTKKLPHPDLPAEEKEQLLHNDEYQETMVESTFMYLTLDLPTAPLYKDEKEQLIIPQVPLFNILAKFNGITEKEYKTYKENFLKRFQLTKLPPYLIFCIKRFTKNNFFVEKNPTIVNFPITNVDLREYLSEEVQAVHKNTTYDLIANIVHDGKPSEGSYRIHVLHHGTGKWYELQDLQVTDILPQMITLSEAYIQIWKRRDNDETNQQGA
Description: as §1

Chain of USP39 / VHL (P40337 whole entry, one chain of several, canonical isoform): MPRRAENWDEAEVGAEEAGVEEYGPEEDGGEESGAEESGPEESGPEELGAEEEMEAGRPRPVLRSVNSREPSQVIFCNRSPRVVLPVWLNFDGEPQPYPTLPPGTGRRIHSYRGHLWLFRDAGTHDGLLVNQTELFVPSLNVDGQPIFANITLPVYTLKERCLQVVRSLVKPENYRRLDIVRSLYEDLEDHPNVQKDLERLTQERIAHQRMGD
Chain of USP39 / VHL (Q15370 whole entry partner, one chain of several, canonical isoform): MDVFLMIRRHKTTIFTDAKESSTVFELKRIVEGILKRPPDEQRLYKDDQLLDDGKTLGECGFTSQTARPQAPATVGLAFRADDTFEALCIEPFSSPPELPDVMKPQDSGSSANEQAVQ
Chain of USP39 / VHL (Q15369 whole entry partner, one chain of several, canonical isoform): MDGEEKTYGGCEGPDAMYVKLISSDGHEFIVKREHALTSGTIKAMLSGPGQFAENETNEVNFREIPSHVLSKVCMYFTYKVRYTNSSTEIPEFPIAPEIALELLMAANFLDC

Cc1ncsc1-c1ccc(CNC(=O)C2CC(O)CN2C(=O)C(NC(=O)CCOCCOCCOCCNC(=O)c2csc(Nc3ccc(Cl)cc3)n2)C(C)(C)C)cc1 (stereo not drawn) [USP39_PROTAC_V1]
Co-immunoprecipitation from VHL pull-downs [1]: enrichment of USP39 and polymerized ubiquitin | Cryptic 5′ splice site usage in ZNF414 and CRK [2]: reproduced these cryptic splicing events | Fold reduction of degradation effect in VHL_m versus VHL_WT cells [3]: more than 80 fold
